Measured values as given in patent US8580814B2, “Methods of using (+)-1,4-dihydro-7-[(3S,4S)-3-methoxy-4-(methylamino)-1-pyrrolidinyl]-4- oxo-1-(2-thiazolyl)-1,8-naphthyridine-3-carboxylic acid for treatment of cancer” (priority 2006, dated 2013).

Tests used:
[1] = test system: HCT116 colon carcinoma cell line; experiment: Combination studies, MTT assay, Combination Index; type: cell-based
Procedure: (§1) Cell lines and Cell Culture: HCT116 and NCI-H460 cell lines were obtained from ATCC. SKOV3(p53−/−) and SKOV3(p53+/+) were obtained from the lab of Dr. George Stark of the Lerner Institute of the Cleveland Clinic. All cell lines were cultured in RPMI media supplemented with 10% FBS 1% Sodium Bicarbonate solution and 1% Antibiotic Solution (Cellgro).
(§2) MTT assay: Cells were plated at 4000 cells per well (except SKOV3 (p53−/−) which were plated at 8000 cells per well) in a 96 well plate, incubated for 24 hours and then treated with compound. Compound treatment lasted 72 hours. Cells were then incubated with 5% MTT for 1-2 hours, and lysed. MTT was colorimetrically read at 570 nm. The fraction of dead cells was determined by the following formula: Fraction of Dead cells=1−[Abs of sample well−Avg(Abs of no cell control)]/[Avg(Abs of DMSO only control)−Avg(abs of no cell control)]
Scheduling studies: When compounds were dosed with a schedule that included a washout, cells were washed with 100 μl of fresh warm media for 30 minutes, followed by another wash after 90 minutes.
(§3) Statistical Analysis: The data (Fraction of Dead cells) was analyzed using Calculsyn.V2 (Biosoft) and is herein represented as the value of the Combination Index at Fraction affected (Fa)=0.5. All data is shown with error bars indicating the 95% confidence intervals of the mean value.
A combination is said to be additive if it yields a Combination Index of 0.85-1.2. A combination is said to be synergistic if it yields a Combination Index less than 0.85 and a combination is said to be antagonistic if it yields a Combination Index of more than 1.2.

[2] = Solubility in acidic compositions; type: physicochemical; conditions: Acidic compositions (<pH 4)
Procedure: An illustrative example of a suitable composition comprises: 10 mg SNS-595 per mL of aqueous solution of 4.5% sorbitol that is adjusted to pH 2.5 with methanesulfonic acid. One protocol for making such a solution includes the following for making a 100 mg/10 mL presentation: 100 mg of SNS-595 and 450 mg D-sorbitol are added to distilled water; the volume is brought up to a volume of 10 mL; and the pH of the resulting solution is adjusted to 2.5 with methanesulfonic acid. The resulting composition is also suitable for lyophilization. The lyophilized form is then reconstituted with sterile water to the appropriate concentration prior to use.

[3] = test system: HCT-116 cells; experiment: Repair of DNA damage (gH2AX foci) in the absence of ATM and ATR; type: cell-based; conditions: for 6 h with 2 mM caffeine, washout, 16 hours recovery
Procedure: Compound was then removed and cells were allowed to recover for 16 hours. Cells were analyzed for gH2AX foci before and after drug washout.

[4] = test system: HCT-116 cells with 6 fold lower ATR levels; experiment: MTT assay, sensitization (ATRFLOX); type: cell-based; conditions: compound 72 hours
Procedure: Cells were then incubated with 5% MTT for 1-2 hours and lysed. MTT was colorimetrically read at 570 nm and EC50's were determined using linear regression analysis.
Sensitization was carried out with various chemical treatments.

[5] = test system: H460 lung cancer cell line; experiment: Combination studies, MTT assay, Combination Index; type: cell-based; conditions: SNS-595 dosed simultaneously with various cytotoxics, H460, Fa=0.5
Procedure: as §1, §2, §3
(§4) A combination is said to be additive if it yields a Combination Index of 0.85-1.2. […]

[6] = test system: SKOV3 ovarian cancer cell line with or without p53 expression; experiment: Combination studies, MTT assay, Combination Index; type: cell-based; conditions: SNS-595 dosed simultaneously with a selection of DNA damaging agents and antimetabolites
Procedure: as §1, §2, §3, §4

[7] = co-dosed, or dosed with 24 hours delay, HCT116

CN[C@H]1CN(c2ccc3c(=O)c(C(=O)O)cn(-c4nccs4)c3n2)C[C@@H]1OC [SNS-595, (+)-1,4-dihydro-7-[(3S,4S)-3-methoxy-4-(methylamino)-1-pyrrolidinyl]-4-oxo-1-(2-thiazolyl)-1,8-naphthyridine-3-carboxylic acid]
combination indices ([1]; SNS-595 dosed simultaneously with various cytotoxics, HCT116, Fa=0.5): significantly synergistic or at least additive
combination effect with docetaxel [1, 7]: might have been antagonistic
combination effect with gemcitabin [1, 7]: might have been antagonistic
combination effect with docetaxel or gemcitabin ([1]; treated with the first agent, washed and then treated with the second agent (2 hr wash and 24 hr wash), HCT116): Additivity or possibly synergy
solubility [2]: increased solubility
repair of induced DNA damage (gH2AX foci) in the absence of ATM and ATR [3]: readily repaired
Sensitization, fold decrease in the EC50 for cytotoxicity (MTT): ATRFLOX [4]: 1 fold
combination indices [5]: significantly synergistic or at least additive
change in the combination index between SKOV3 with or without p53 expression [6]: no significant change
